Entries after “also recorded” stand apart in the source; their conditions may differ. Like-named read-outs stand apart in the source and are kept apart here. Where only a bound is given, the exact number is not on record here.

These results are taken from patent US20200323843A1 (IRR, Inc., priority 2010, published 2020).

For data set [1], the system named is influenza. The settings on record: 10 days; levocetirizine 5 mg po and/or montelukast 10 mg po.
From the text: A cohort of 20 patients between the ages of 15-30 years of age (and no other co-morbid disease processes), presenting with classic symptoms of influenza: headache, fever, dry cough and extreme fatigue, are identified and divided into four treatment groups. The first group (CONTROL) receives two placebo tablet(s) each administered together at the same time each day for a period of 10 days.
Laboratory data shall consist of a complete blood count, comprehensive metabolic panel, C-reactive protein, T and B cell lymphocyte panel, chest x-ray, and viral and aerobic cultures of the airway. Vital signs will be logged at the initial visit and the patient's fever profile tracked over the interim. Onset, duration and intensity of symptoms (headache, fever, cough, fatigue) will be logged in addition to the time to resolution of symptoms (time zero—first dose of medication(s)). Second endpoint data will include the time it takes to return to full activity, work/school.
Data set [2] relates to histamine induced wheal and flare. The settings on record: cited from earlier work.
The next data set deals with human rhinovirus. The note with it: airway epithelial cells; cited from earlier work.
Data set [3] has as its system eosinophil migration, IL-4, IL-6, IL-8. The settings on record: cited from earlier work.
For data set [4] the following is noted: cited from earlier work.
The conditions of data set [5]: cited from earlier work. The source holds these as a separate data set.
The conditions of data set [6]: cited from earlier work. This is another data set of the same source.
Data set [7] deals with influenza. The settings on record: patients with influenza; cited from earlier work.

In the case of `O=C(O)COCCN1CCN([C@H](c2ccccc2)c2ccc(Cl)cc2)CC1` [Levocetirizine, levocetirizine], the influenza symptoms result in the data set with influenza [1] was “reduced fever profile and overall feeling of fatigue, without significant foreshortening of the disease process”. Further, in data set [2] (histamine induced wheal and flare data), the “potency among the five modern generation antihistamines” value is listed as “most potent”. For the same compound, the “effectiveness compared with fexofenadine” value in data set [2] (levocetirizine 5 mg per day vs fexofenadine 180 mg per day) was “more effective”. In addition, the “rhinovirus-induced ICAM-1 and cytokine expression and viral replication” value with human rhinovirus was “inhibits”. In addition, in data set [3], the eosinophil migration entry is “decrease”; the “inflammatory mediators, IL-4, IL-6, and IL-8” value is listed as “decrease”. Further, in data set [4] (in vivo), the Steady-state level was 40 h and the “time to steady state level” value is 40 h. Further, in data set [5] (at higher doses), the principal side effect result is on record as “Sedation”. Also, the “dose that can be safely administered” value in data set [5] (humans) is listed as “up to 30 mg/day”.
Turning to `CC(C)(O)c1ccccc1CC[C@@H](SCC1(CC(=O)O)CC1)c1cccc(/C=C/c2ccc3ccc(Cl)cc3n2)c1` [Montelukast, montelukast], the “plasma concentration area under the curve profile, IV vs oral tablet” value in data set [4] (IV 7 mg vs approved 10 mg oral tablet) was “comparable”. In addition, the “drug interactions with warfarin, theophylline, digoxin, terfenadine, oral contraceptives, or prednisone” value in data set [4] (in vivo, po) is “no drug interactions”. Also, in data set [4] (in vivo), the absorption result was “rapidly absorbed”; the “linear pharmacokinetics, up to dose” value is on record as ≤ 50 mg; the “time to peak plasma concentration” value is 3 to 4 h. Besides, the “oral bioavailability and Cmax, effect of a standard meal” value in data set [4] (standard meal) is given as “not affected”. Moreover, in data set [6] (adult patients, 22 weeks), the “dose administered without clinically important adverse experiences” value was “up to 200 mg/day”. Further, in data set [6] (short-term studies, approximately one week), the “dose administered without clinically important adverse experiences” value is reported as “up to 900 mg/day”.
`CCOC(=O)C1=C[C@@H](OC(CC)CC)[C@H](NC(C)=O)[C@@H](N)C1` [oseltamivir]: the “influenza related lower respiratory tract infections/complications” value in the data set on influenza [7] is listed as “has not been shown to decrease; also recorded: did not appear to reduce”.
